The text below walks through data of patent US11357745B2, “Methods and materials for treating cytokine release syndrome” (Mayo Foundation for Medical Education and Research, priority 2018, dated 2022).

The test system of data set [1] is human myeloma cell lines (HMCLs). Nature of the data set: MTT assay across 10 human myeloma cell lines, compared with receptor surface expression by flow cytometry. It is filed as cell-based. The text has this:
Surface expression of IL-6Rα, IL-6ST and CD44 was quantified using IL-6Rα-PE (clone UV4, Biolegend), IL-6ST-APC (2E1B02, Biolegend) and CD44-BV711 (IM7, Biolegend), and compared to isotype or unstained control.

Data set [2] concerns RPMI. Put plainly: MTT assay, metformin in RPMI myeloma cells. As to conditions: Homo sapiens, 72 hours, Compusyn, read-out: metformin required to achieve 50% cell death/growth inhibition (IC50). It is filed as cell-based. On the procedure:
(§1) Data is presented as heat map intensity corresponding to the level of expression. (B) HMCLs were treated with different doses of metformin for 72 hours and relative proliferation compared to vehicle control was calculated using MTT assay. Data is presented as IC50 for different cell lines and IC50 was calculated using Compusyn software (n=6). (C) & (D) HMCLs MM1S, RPMI, and U266 were treated with vehicle control (DMSO) or metformin 10 mM for 72 hours. (C) For apoptosis assay, cells were suspended in Annexin V buffer and stained with Annexin V for 30 minutes. Propidium iodide was added 10 minutes prior to data acquisition by flow cytometry. (D) For cell cycle assay, BrdU was added and incubated for 4 hours. Cells were fixed, permeabilized and stained with Anti-BrdU antibody for 30 minutes. 7AAD was added 10 minutes to samples before data acquisition by flow cytometry. The data were acquired on BD Fortessa and analyzed with flowjo V10.
(§2) IC50 was calculated using Compusyn software.

The test system of data set [3] is U266. Put plainly: Annexin V / propidium iodide apoptosis assay, U266. It is filed as cell-based, human. The note with it: U266, metformin 10 mM, 72 hours, Annexin V/PI. On the procedure:
as §1, with “Cells were fixed, permeabilized and stained with Anti-BrdU antibody for 30 minutes. 7AAD was added 10 minutes to samples before data acquisition by flow cytometry.” left out
(§3) Cell surface expression of IL-6Rα, IL-6ST, and CD44 was quantified using the fluorescently labeled antibodies anti-IL6R-PE (UV4, Biolegend), anti-IL6ST-APC (2E1B02, Biolegend) and anti-CD44-BV711 (IM7, Biolegend), and compared with isotype control. BrdU labeling assay (Phase-Flow™, Biolegend) was performed according to the manufacturer's protocol to quantify cell cycle. […] For apoptosis assay, the cells were treated with metformin for 72 hours and quantified with Annexin V (Biolegend). […] The data were analyzed using flowJo vs10.4.2 (Flowjo LLC, USA). […]

Data set [4] deals with MM1S. Nature of the data set: BrdU cell cycle assay, MM1S. Type of data set: cell-based, human. The note with it: metformin 10 mM, 72 hours, from 34% without metformin. As to the method:
as §1, with “Cells were fixed, permeabilized and stained with Anti-BrdU antibody for 30 minutes. 7AAD was added 10 minutes to samples before data acquisition by flow cytometry.” left out
as §3

Data set [5] has as its system IL-6Rα. Nature of the data set: Flow cytometry, cell surface IL-6Rα on primary myeloma cells. Type of data set: cell-based, human. As to conditions: metformin 10 mM, 48 hours, n=11. On the procedure: (§4) Surface expression of IL-6Rα, IL-6ST and CD44 was quantified using IL-6Rα-PE (clone UV4, Biolegend), IL-6ST-APC (2E1B02, Biolegend) and CD44-BV711 (IM7, Biolegend), and compared to isotype or unstained control. BrdU labelling assay (Phase-Flow™, Biolegend) was performed according to the manufacturer's protocol to quantify cell cycle fractions. After treatment cells were labelled with BrdU for 2 hours. For apoptosis assay, cells were treated with metformin for 72 hours and quantified with Annexin V (Biolegend). All assays were quantified on LSR Fortessa.
(In flow cytometry, cells or beads pass a laser one at a time.)

In another data set the test system is CD44. Put plainly: Flow cytometry, cell surface CD44 in HMCLs. As to conditions: RPMI, ANBL6, U266, MM1S, JJN3; metformin 10 mM, 72 hours. Type of data set: cell-based, human. As to the method: (§5) RPMI, ANBL6, U266, MM1S, and JJN3 were treated with metformin 10 mM for 72 hours and median fluorescence intensity for cell surface expression of (A) IL-6Rα, (B) IL-6-Rβ and (C) CD44 was quantified using flow cytometry. Vehicle (open bar) and metformin 10 mM (shaded bar), n=3. (D) RPMI and ANBL6 cells were cultured either in the presence of vehicle control or metformin 10 mM for 72 hours. Soluble IL-6Rα was quantified in media supernatant using ELISA kit. Vehicle (open bar) and metformin 10 mM (shaded bar), n=6. […] (E) RPMI and ANBL6 cells were cultured either in presence of vehicle control or metformin 10 mM for 72 hours. mRNA expression of IL-6Rα was quantified using qPCR TaqMan assay. Vehicle (open bar) and metformin 10 mM (shaded bar), n=6.
as §4

Data set [6] relates to U266. Put plainly: BrdU cell cycle assay, U266. Type of data set: cell-based, human. As to conditions: U266, metformin 10 mM, 72 hours, from 35% without metformin. On the procedure: as §1, with “Cells were fixed, permeabilized and stained with Anti-BrdU antibody for 30 minutes. 7AAD was added 10 minutes to samples before data acquisition by flow cytometry.” left out
as §3

For data set [7], the system named is IL-6Rα. Nature of the data set: Flow cytometry, cell surface IL-6Rα in HMCLs. The note with it: RPMI, ANBL6, U266, MM1S, JJN3; metformin 10 mM, 72 hours. Type of data set: cell-based, human. As to the method: as §5, §4
Another data set concerns JJN3. Put plainly: MTT assay, metformin in JJN3 myeloma cells. It is filed as cell-based. As to conditions: Homo sapiens, JJN-3, JJN3, 72 hours, Compusyn, read-out: metformin required for 50% cell death/growth inhibition (IC50). On the procedure: as §1, §2
In a further data set the test system is RPMI IL-6Rα knock-downs. Put plainly: MTT assay in RPMI IL-6Rα knock-down cells. Type of data set: cell-based, human. As to conditions: n=6. On the procedure: as §2
pGFP-C-shLenti vectors (4 shRNA targeting IL-6Rα and 1 scramble control) were purchased from Origene. Lentiviral particles were generated in HEK293T cells using pMD2.G (Addgene) and psPAX2 (Addgene). HMCLs were transduced with lentiviral vector particles in the presence of Polybrene (Millipore). Stable cell lines were generated after selecting for GFP positive cells with flow sorting and treatment with puromycin. Decreased expression of IL-6Rα compared to scrambled control was confirmed with qPCR and flow cytometer.

Another data set has as its system ALMC1 and ALMC2. Put plainly: MTT assay in primary amyloidosis (AL) cell lines. Type of data set: cell-based. As to conditions: ALMC2 high, ALMC1 low IL-6Rα expresser. (Formazan colour is commonly taken as a measure of viable cells.)
The subject of another data set is KMS12PE. Put plainly: MTT assay, metformin in KMS12PE myeloma cells. It is filed as cell-based. As to conditions: Homo sapiens, KMS-12-PE, 72 hours, Compusyn, read-out: metformin required to achieve 50% cell death/growth inhibition (IC50). On the procedure: as §1, §2
The subject of data set [8] is JJN3 engineered to over-express IL-6Rα. Nature of the data set: MTT assay in JJN3 cells over-expressing IL-6Rα. The note with it: n=6. Type of data set: cell-based, human.
Protocol: Ten different HMCLs were treated with metformin (0, 1 mM, 5 mM, 10 mM, 20 mM, 40 mM, and 80 mM) for 72 hours. The total numbers of live cells (metabolically active) were estimated using MTT assay. Relative proliferation was calculated by normalizing absorbance value with that obtained for vehicle control. IC50 was calculated using Compusyn software. […] (D) JJN3 IL-6Rα over-expressing cells were created using IL-6R cDNA expressing vector. Increased expression of IL-6Rα was confirmed by flow cytometry. (E) The sensitivity to metformin (IC50) was calculated using the MTT assay for cells transduced with the shRNA scrambled control or IL-6Rα KDs (n=6). […] (F) Metformin IC50 was calculated using MTT assay for JJN3 control and IL-6Rα over-expresser (n=6).
(3-(4,5-Dimethylthiazol-2-5-Diphenyltetrazolium Bromide (MTT) (ThermoFisher Scientific, MA, USA) was dissolved in PBS to make 12 mM stock solution. Cells were seeded at 10,000 cells in 50 μL complete medium. Drugs, cytokines and antibodies were added at indicated doses in 50 μL complete medium. HMCLs were incubated for 72 hours while primary myeloma cells were incubated for 48 hours in presence of vehicle control, metformin (1 mM, 5 mM, 10 mM, 20 mM, 40 mM and 80 mM). MTT (10 μL) was added to each well and incubated for an additional 2 hours. Lysis buffer (100 μL) was added to each well and absorbance was read at 570 nm. […]
Data set [9] deals with RPMI. Put plainly: BrdU cell cycle assay, RPMI. It is filed as cell-based, human. As to conditions: metformin 10 mM, 72 hours, from 53% without metformin. On the procedure: as §1, with “Cells were fixed, permeabilized and stained with Anti-BrdU antibody for 30 minutes. 7AAD was added 10 minutes to samples before data acquisition by flow cytometry.” left out
as §3

In data set [10] the test system is IL-6Rα. Nature of the data set: Flow cytometry, IL-6Rα on Hep3B hepatocytes. It is filed as cell-based, human. The note with it: metformin 10 mM, 72 hours. As to the method: Human hepatocellular carcinoma cell line Hep3B was purchased from ATCC. Cells were maintained in DMEM supplemented with 10% FBS and 100 U/mL penicillin and 100 μg/mL streptomycin.
as §4, with “Fortessa. Data were analyzed using flowJo vs10.4.2 (Flowjo LLC, USA).” for “Fortessa.”

The next data set deals with IL-6Rα mRNA. Nature of the data set: IL-6Rα mRNA, qPCR TaqMan assay. Type of data set: cell-based, human. The note with it: RPMI and ANBL6, metformin 10 mM, 72 hours. On the procedure:
as §5
(In general: Real-time PCR tracks product formation cycle by cycle.)

In data set [11] the test system is IL-6 induced CRP production from hepatocytes (Hep3B). The note with it: metformin 10 mM pre-treatment 72 hours, IL-6 50 ng/ml, 48 hours.
A further data set deals with primary myeloma cells. Put plainly: MTT assay in primary myeloma cells (CD138+ enriched). As to conditions: metformin 10 mM, 48 hours.
The next data set has as its system soluble IL-6Rα. The note with it: RPMI and ANBL6, metformin 10 mM, 72 hours, ELISA. As to the method: as §5
Data set [12] relates to RPMI. Nature of the data set: Annexin V / propidium iodide apoptosis assay, RPMI. Type of data set: cell-based, human. The note with it: metformin 10 mM, 72 hours, Annexin V/PI. As to the method: as §1, with “Cells were fixed, permeabilized and stained with Anti-BrdU antibody for 30 minutes. 7AAD was added 10 minutes to samples before data acquisition by flow cytometry.” left out
as §3

Data set [13] concerns MM1S. Nature of the data set: Annexin V / propidium iodide apoptosis assay, MM1S. Type of data set: cell-based, human. The note with it: metformin 10 mM, 72 hours, Annexin V/PI. As to the method:
as §1, with “Cells were fixed, permeabilized and stained with Anti-BrdU antibody for 30 minutes. 7AAD was added 10 minutes to samples before data acquisition by flow cytometry.” left out
as §3

Protocol for ALMC1 and ALMC2: (3-(4,5-Dimethylthiazol-2-5-Diphenyltetrazolium Bromide (MTT) (Thermo Fisher Scientific, MA, USA) was dissolved in PBS to make 12 mM stock solution. Cells were seeded at 10,000 cells in 50 μl complete medium. Drugs, cytokines and antibodies were added at indicated doses in 50 μl complete medium. Cells were incubated for 72 hours for HMCLs and 48 hours for primary myeloma cells in presence of vehicle control, or metformin (1 mM, 5 mM, 10 mM, 20 mM, 40 mM, and 80 mM). MTT (10 μl) was added to each well and incubated for an additional 2 hours. Lysis buffer (100 μl) was added to each well and absorbance was read at 570 nm.

Take `[H]/N=C(/N)N/C(=N/[H])NCCc1ccccc1` [Phenformin]: the “Phenformin IC50 versus IL-6Rα expression” value in [1] (MTT IC50 vs flow cytometry) is “strongly negatively correlated”.

As to `CN(C)C(=N)N=C(N)N` [metformin], the IC50 with RPMI [2] is less than 10 mM; in the data set with JJN3, greater than 30 mM; in the data set with KMS12PE, less than 10 mM. Also, the “percentage of live cells after metformin treatment” value was found to be 67% with U266 [3], 59% in the data set on RPMI [12] and 76% in the data set with MM1S [13]. The “S phase fraction after metformin treatment” value in the data set on MM1S [4] is reported as 23%; in the data set with U266 [6], 20%; with RPMI [9], 29%. For the same compound, the “cell surface expression of IL-6Rα on primary myeloma cells” value with IL-6Rα [5] is on record as “decreased cell surface expression of IL-6Rα”. Also, in the data set on CD44, the CD44 expression result is given as “no significant change”. Besides, the “cell surface expression of IL-6Rα” value in the data set with IL-6Rα [7] was “significantly and consistently reduced”. In addition, the “survival/growth of multiple myeloma cells” value in data set [1] (72 hours, MTT, variable levels of efficacy) is recorded as “inhibited survival/growth”. For the same compound, in the data set on RPMI IL-6Rα knock-downs, the “IC50 for metformin in RPMI IL-6Rα knock-downs compared to scramble control” value is “significantly increased”. For the same compound, the “Metformin IC50, ALMC2 compared to ALMC1” value with ALMC1 and ALMC2 is given as “lower for ALMC2 compared to ALMC1”. Also, in [8], the “IC50 for metformin in JJN3 over-expressing IL-6Rα compared to wild type JJN3” value is given as “significantly decreased”. Besides, the “IL-6Rα expression on hepatocytes” value in the data set on IL-6Rα [10] is recorded as “expression of the receptor decreased”. The “IL-6Rα mRNA level (transcription)” value in the data set on IL-6Rα mRNA was “decreased the level of IL-6Rα transcription”. Further, the “IL-6 induced CRP production from hepatocytes” value in [11] is reported as “significantly inhibited”. Moreover, in the data set on primary myeloma cells, the “survival/proliferation of primary myeloma cells” value was “decreased survival/proliferation”. The “soluble IL-6Rα in media” value in the data set on soluble IL-6Rα was “decrease”.
